In patent US10881719B2, “Combinatorial androgen deprivation with an androgen receptor vaccine” (Wisconsin Alumni Research Foundation, priority 2016, dated 2021):
Square brackets hold non-standard residues; d marks the D form. Peptide text beside a SMILES is read from it. * marks the point of attachment. dPhe(4-NHCONH2) = NC(=O)Nc1ccc(C[C@@H](N)C(=O)O)cc1; Dihydroorotyl(S) = O=C1C[C@@H](C(=O)*)NC(=O)N1; dPhe(4-Cl) = N[C@H](Cc1ccc(Cl)cc1)C(=O)O; Phe(4-NH2) = Nc1ccc(C[C@H](N)C(=O)O)cc1; d2Nal = N[C@H](Cc1ccc2ccccc2c1)C(=O)O; Lys(iPr) = CC(C)NCCCC[C@H](N)C(=O)O; d3Pal = N[C@H](Cc1cccnc1)C(=O)O

Tests used:
Myc-CaP/AS tumors [1] = assay: Myc-CaP/AS tumor growth in FVB mice, ADT with or without immunization; type: in vivo; settings: degarelix alone, MycCaP model
Protocol: Briefly, male FVB mice (n=8) were implanted with MycCaP tumors, treated with degarelix (or sham), and immunized weekly with pTVG-AR or control pTVG4. FIG. 8A, splenocytes were collected and analyzed for immune responses against MycCaP/CR tumor cells by intracellular cytokine staining (left panel) and AR peptide-stimulated splenocytes from pTVG-AR-immunized mice were measured for ability to lyse MycCap/AS vs. MycCap/CR tumor cells (right panel). FIG. 8B depicts mice followed for tumor volume. In all panels, * indicates p<0.05 by Student's t-test. FIG. 8C depicts tumor volume post-challenge of control (sham), degarelix+pTVG4 and degarelix+pTVG-AR.
FVB mice were inoculated subcutaneously with […] Myc-CaP/AS tumor cells, and followed daily for the presence of palpable tumors. Once tumors were palpable, mice were treated subcutaneously with either degarelix (25 mg/kg) or a vehicle sham treatment every four weeks. For immunization studies, degarelix-treated animals were randomized to weekly immunization with 100 μg pTVG4 or pTVG-AR beginning one day after receiving degarelix. Tumor growth was measured at least three times weekly, and tumor volumes calculated as we've published (19). At the time of euthanasia, tumors and spleens were collected. […]

[2] = tested on: PTEN-deficient prostate tumors; assay: Autochthonous prostate tumors in PbCre+ PTENfl/fl mice, PET/CT and necropsy; type: in vivo; settings: androgen deprivation (degarelix) vs sham, pre- to post-treatment
Protocol: FVB mice were inoculated subcutaneously with […] Myc-CaP/AS tumor cells, and followed daily for the presence of palpable tumors. Once tumors were palpable, mice were treated subcutaneously with either degarelix (25 mg/kg) or a vehicle sham treatment every four weeks. For immunization studies, degarelix-treated animals were randomized to weekly immunization with 100 μg pTVG4 or pTVG-AR beginning one day after receiving degarelix. Tumor growth was measured at least three times weekly, and tumor volumes calculated as we've published (19). At the time of euthanasia, tumors and spleens were collected. For studies using PTEN-deficient mice, animals began receiving degarelix (25 mg/kg) at 20 weeks (+/−two weeks) of age, followed by biweekly immunization with 100 μg pTVG4 or pTVG-AR beginning one day after ADT. Animals were treated until 40 weeks of age (+/−two weeks) before tissue collection.
All mice were intravenously administered between 5-8 MBq of 124I-CLR1404 and then micro positron emission tomography/computed tomography (PET/CT) scanned 96 hrs post-injection. During scanning, mice were anesthetized with 2% isoflurane inhalation gas mixed with 1 L/min of pure oxygen (27). […]
All PET and CT images were co-registered. Image data were analyzed using the General Analysis tools provided by Siemens Inveon Research Workplace (Siemens Medical Solutions). […]

Myc-CaP/AS tumors [3] = assay: AR expression in MycCaP tumors in vivo after chemical castration, intracellular staining; design: species or system FVB mice; settings: MycCaP model in vivo, degarelix vs sham, tumors at outgrowth
Excerpt: Briefly, Human 22Rv1 prostate cancer cells cultured in androgen replete (FCS) or—deprived (CSS) conditions (FIG. 7A), or mouse MycCaP cells serially passaged in untreated (MycCaP/AS) or castrate (MycCaP/CR) mice (FIG. 7B) were collected and analyzed for AR expression by qPCR (left panels), ELISA (center panels), and intracellular staining (ICS, right panels). FIG. 7C, FVB mice were challenged with MycCaP/AS tumor cells, and given degarelix or a sham treatment. At the time of outgrowth, tumors were collected and analyzed for AR expression by intracellular flow cytometry (example histogram with samples stained with IgG or AR-intracellular antibodies; quantified in right panels). FIG. 7D, AR-specific CD8+ T cells were cultured with 22Rv1/FCS or 22Rv1/CSS cells, and evaluated for T-cell activation by CD69 expression (left panel), IFNγ and TNFα cytokine expression (center panel), and cytotoxicity (right panel). In all panels, * indicates p<0.05 by Student's t-test.
FVB mice were inoculated subcutaneously with […] Myc-CaP/AS tumor cells, and followed daily for the presence of palpable tumors. Once tumors were palpable, mice were treated subcutaneously with either degarelix (25 mg/kg) or a vehicle sham treatment every four weeks. […] Tumor growth was measured at least three times weekly, and tumor volumes calculated as we've published (19). […]

prostate tumor cells = assay: AR expression in prostate tumor cells in vitro after treatment with AR antagonists; type: cell-based; settings: after treatment with AR antagonist

Row | Structure (SMILES) | tumor growth (Myc-CaP/AS tumors [1]) | 124I-CLR1404 mean and max tumor uptake [2] | AR expression in tumors (Myc-CaP/AS tumors [3]) | AR expression in prostate tumor cells (prostate tumor cells)
1 | CC(=O)N[C@H](Cc1ccc2ccccc2c1)C(=O)N[C@H](Cc1ccc(Cl)cc1)C(=O)N[C@H](Cc1cccnc1)C(=O)N[C@@H](CO)C(=O)N[C@@H](Cc1ccc(NC(=O)[C@@H]2CC(=O)NC(=O)N2)cc1)C(=O)N[C@H](Cc1ccc(NC(N)=O)cc1)C(=O)N[C@@H](CC(C)C)C(=O)N[C@@H](CCCCNC(C)C)C(=O)N1CCC[C@H]1C(=O)N[C@H](C)C(N)=O [degarelix] (Ac-[d2Nal][dPhe(4-Cl)][d3Pal]S[Phe(4-NH2)](Dihydroorotyl(S))[dPhe(4-NHCONH2)]L[Lys(iPr)]P[dA]-NH2) | delay in tumor growth | decreased 124I-CLR1404 mean and max tumor uptake | increased AR expression in tumors | 
2 | CNC(=O)c1ccc(N2C(=S)N(c3ccc(C#N)c(C(F)(F)F)c3)C(=O)C2(C)C)cc1F [enzalutamide] |  |  |  | increased AR expression
